Values quoted from earlier work as cited in patent US6126939A, “Anti-inflammatory dipeptide and pharmaceutical composition thereof” (Yeda Research and Development Co. Ltd., priority 1997, dated 2000).

Key:
blood sugar levels = details: rats, i.p. 100 mg/kg
[1] = in vitro test assay
macrophage migration = details: literature
IL-1 = details: literature

Molecule | hypoglycemic activity (lowering of blood sugar levels) (blood sugar levels) | antilipolytic activity [1] | macrophage migration (macrophage migration) | secretion of IL-1 macrophages (IL-1)
Gln-Arg-OMe | having hypoglycemic activity | no significant antilipolytic activity |  | 
Glu-Arg-OMe | having hypoglycemic activity | have antilipolytic activity |  | 
Thr-Lys-Pro [TKP] |  |  | inhibit macrophage migration | reduce secretion of IL-1
Glu-Arg-NH2 | did not significantly lower blood sugar levels | have antilipolytic activity |  | 
Arg-Asn-NH2 | having hypoglycemic activity | have antilipolytic activity |  | 
Asn-Arg-NH2 | having hypoglycemic activity | have antilipolytic activity |  | 
Arg-Asn | having hypoglycemic activity | no significant antilipolytic activity |  | 
COc1ccc2c(C(=S)N(C)CC(=O)O)cccc2c1C(F)(F)F [Tolrestat] |  |  | Another MIF | 
Gln-Arg-NH2 | having hypoglycemic activity | have antilipolytic activity |  | 
